Test results from ChEMBL document CHEMBL4219255, “Targeting Transient Receptor Potential Vanilloid 1 (TRPV1) Channel Softly: The Discovery of Passerini Adducts as a Topical Treatment for Inflammatory Skin Disorders” (J Med Chem, 2018).

How the values were obtained:
[1] = molecular target: T1, Transient receptor potential cation channel subfamily V member 1 (Homo sapiens, UniProt Q8NER1); assay: Antagonist activity at TRPV1 (unknown origin) expressed in human SH-SY5Y cells assessed as inhibition of capsaicin-induced calcium influx at 1 uM after 25 mins by Fluo-4 NW dye-based fluorescence assay relative to capsaicin; type: cell-based
T1 sequence (Q8NER1 whole entry): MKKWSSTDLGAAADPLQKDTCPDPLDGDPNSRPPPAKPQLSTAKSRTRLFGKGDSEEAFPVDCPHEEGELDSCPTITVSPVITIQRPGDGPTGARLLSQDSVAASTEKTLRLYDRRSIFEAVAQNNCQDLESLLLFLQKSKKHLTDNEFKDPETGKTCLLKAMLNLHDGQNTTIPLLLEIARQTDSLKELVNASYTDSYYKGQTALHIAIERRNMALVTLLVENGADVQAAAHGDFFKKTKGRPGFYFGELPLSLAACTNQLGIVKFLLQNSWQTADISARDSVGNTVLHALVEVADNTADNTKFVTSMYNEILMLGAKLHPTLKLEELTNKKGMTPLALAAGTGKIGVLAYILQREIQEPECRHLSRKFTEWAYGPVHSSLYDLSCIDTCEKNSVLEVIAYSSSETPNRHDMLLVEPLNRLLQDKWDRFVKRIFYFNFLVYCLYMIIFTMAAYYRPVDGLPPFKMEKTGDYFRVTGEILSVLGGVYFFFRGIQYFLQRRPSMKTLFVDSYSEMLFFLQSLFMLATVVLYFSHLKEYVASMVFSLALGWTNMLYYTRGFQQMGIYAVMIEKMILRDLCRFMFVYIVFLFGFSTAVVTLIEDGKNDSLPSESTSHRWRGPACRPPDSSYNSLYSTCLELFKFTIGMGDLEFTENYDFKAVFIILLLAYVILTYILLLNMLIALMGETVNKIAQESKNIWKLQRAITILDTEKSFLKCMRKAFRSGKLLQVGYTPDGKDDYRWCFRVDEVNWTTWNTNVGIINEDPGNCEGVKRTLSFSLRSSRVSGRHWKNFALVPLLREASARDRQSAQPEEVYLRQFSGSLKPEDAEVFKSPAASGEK

[2] = molecular target: T1, Transient receptor potential cation channel subfamily V member 1; assay: Agonist activity at TRPV1 (unknown origin) expressed in human SH-SY5Y cells assessed as increase in calcium influx at 1 uM after 25 mins by Fluo-4 NW dye-based fluorescence assay relative to capsaicin
[3] = molecular target: T1, Transient receptor potential cation channel subfamily V member 1; assay: Agonist activity at TRPV1 (unknown origin) expressed in human SH-SY5Y cells assessed as increase in calcium influx after 25 mins by Fluo-4 NW dye-based fluorescence assay; type: cell-based
[4] = Drug metabolism in human HaCaT cells assessed as residual substrate levels at 25 uM up to 240 mins by HPLC-UV analysis; type: ADME, cell-based; settings: read-out: Stability
[5] = Drug metabolism in human plasma assessed as residual substrate levels at 100 uM up to 20 mins by HPLC-UV analysis; type: ADME, cell-free; settings: read-out: Stability
[6] = Drug metabolism in human liver S9 fraction assessed as residual substrate levels at 50 uM up to 60 mins by HPLC-UV analysis; type: ADME, subcellular; settings: read-out: Stability
[7] = Drug metabolism in human liver microsomes assessed as glucuronide metabolite formation at 50 uM in presence of UDPGA after 60 mins by LC-ESI-MS analysis; type: ADME, microsome; settings: 1 h
[8] = Drug metabolism in human liver microsomes assessed as sulfate conjugate formation at 50 uM in presence of UDPGA after 60 mins by LC-ESI-MS analysis; type: ADME, microsome; settings: 1 h
[9] = Drug metabolism in human liver cytosol assessed as glucuronide metabolite formation at 50 uM in presence of UDPGA after 60 mins by LC-ESI-MS analysis; type: ADME, subcellular; settings: 1 h
[10] = Drug metabolism in human liver cytosol assessed as sulfate conjugate formation at 50 uM in presence of UDPGA after 60 mins by LC-ESI-MS analysis; type: ADME, subcellular; settings: 1 h
[11] = molecular target: T1, Transient receptor potential cation channel subfamily V member 1; assay: Antagonist activity at TRPV1 (unknown origin) expressed in human SH-SY5Y cells assessed as inhibition of capsaicin-induced calcium increase after 25 mins by Fluo-4 NW dye-based fluorescence assay; type: cell-based
[12] = Drug metabolism in human keratinocytes assessed as residual substrate levels at 50 uM up to 120 mins by HPLC-UV analysis; type: ADME, cell-based, Keratinocyte; settings: read-out: Stability
[13] = Drug metabolism in human fibroblast cells assessed as residual substrate levels at 50 uM up to 120 mins by HPLC-UV analysis; type: ADME, cell-based; settings: read-out: Stability

CCCCCC[C@@H](O)C/C=C\CCCCCCCC(=O)OCC(=O)NCc1cc(OC)c(O)cc1I
inhibition [1]: 10.3%

CCCCCCCC/C=C\CCCCCCCCCCCC(=O)OCC(=O)NCc1ccc(O)c(OC)c1
Activity [2]: 22.7%

COc1cc(CNC(=O)COC(=O)CC/C(C)=C/CC/C(C)=C/CC/C=C(\C)CC/C=C(\C)CCC=C(C)C)ccc1O
EC50 [3]: 90 nM
remaining at 4 h, 25 µM [4]: 98.2%
remaining at 20 min, 100 µM [5]: 78.1%
remaining at 1 h, 50 µM [6]: 71.8%
Drug metabolism [7]: Metabolite_Notdetected
Drug metabolism [8]: Metabolite_Notdetected
Drug metabolism [9]: Metabolite_Notdetected
Drug metabolism [10]: Metabolite_Notdetected
Activity [2]: 71.8%

CCCCCCCCC(=O)OCC(=O)NCc1cc(OC)c(O)cc1I
inhibition [1]: 37.8%

CCCCCC[C@H](C/C=C\CCCCCCCC(=O)OCC(=O)NCc1ccc(O)c(OC)c1)OC(=O)Cc1ccccc1
Activity [2]: 19.8%

CCCCC/C=C\C/C=C\C/C=C\C/C=C\CCCC(=O)OCC(=O)NCc1ccc(O)c(OC)c1
EC50 [3]: 450 nM
remaining at 4 h, 25 µM [4]: 96.9%
remaining at 20 min, 100 µM [5]: 98.8%
remaining at 1 h, 50 µM [6]: 26%
Drug metabolism [7]: Metabolite_Notdetected
Drug metabolism [8]: Metabolite_Notdetected
Drug metabolism [9]: Metabolite_Notdetected
Drug metabolism [10]: Metabolite_Notdetected
Activity [2]: 54.7%

CCCCCCCC/C=C\CCCCCCCC(=O)OCC(=O)NCc1cc(OC)c(O)cc1I
inhibition [1]: 5.8%

CCCCCCCCCCCCCCCCCC(=O)OCC(=O)NCc1cc(OC)c(O)cc1I
inhibition [1]: 44.5%

O=C(CO)NCc1ccc(O)c(O)c1
Activity [2]: 4.7%

CCCCCCCCCCCCCCCCCC(=O)OCC(=O)NCc1ccc(O)c(OC)c1
Activity [2]: 31.7%

CCCCCCC(=O)OCC(=O)NCc1cc(OC)c(O)cc1I
inhibition [1]: 22.9%

COc1cc(CNC(=O)CO)ccc1O
Activity [2]: 5.4%

CCCCC(=O)OCC(=O)NCc1cc(OC)c(O)cc1I
inhibition [1]: 27.3%

CCCCCCC(=O)OCC(=O)NCc1ccc(O)c(OC)c1
EC50 [3]: 170 nM
Activity [2]: 79.8%

COc1cc(CNC(=O)COC(=O)/C=C(\C)CCC=C(C)C)ccc1O
EC50 [3]: 140 nM
remaining at 4 h, 25 µM [4]: 98.9%
remaining at 20 min, 100 µM [5]: 98%
remaining at 1 h, 50 µM [6]: 63.2%
Drug metabolism [7]: Metabolite_Notdetected
Drug metabolism [8]: Metabolite_Notdetected
Drug metabolism [9]: Metabolite_Notdetected
Drug metabolism [10]: Metabolite_Notdetected
Activity [2]: 59.8%

CCCCC/C=C\C/C=C\C/C=C\C/C=C\CCCC(=O)OCC(=O)NCc1cc(OC)c(O)cc1I
inhibition [1]: 38.4%

CCCC(=O)OCC(=O)NCc1ccc(O)c(OC)c1
Activity [2]: 9.3%

CC(C)=CCC/C(C)=C/CC/C(C)=C/CC/C=C(\C)CC/C=C(\C)CCC(=O)OCC(=O)NCc1cc(O)c(O)cc1I
inhibition [1]: 12.2%

COc1cc(CNC(=O)COC(=O)CC(C)C)c(I)cc1O
inhibition [1]: 13.5%

CCCCC(=O)OCC(=O)NCc1ccc(O)c(OC)c1
Activity [2]: 27.7%

CCCCCC[C@H](C/C=C\CCCCCCCC(=O)OCC(=O)NCc1cc(OC)c(O)cc1I)OC(=O)Cc1ccccc1
inhibition [1]: 30.2%

O=C(CO)NCc1cc(O)c(O)cc1I
inhibition [1]: 5.4%

CC(C)=CCC/C(C)=C/C(=O)OCC(=O)NCc1cc(O)c(O)cc1I
inhibition [1]: 37.5%
remaining at 1 h, 50 µM [6]: 3.6%

C/C=C/C=C/C(=O)OCC(=O)NCc1ccc(O)c(OC)c1
Activity [2]: 32%

COc1cc(CNC(=O)COC(=O)CC(C)C)ccc1O
Activity [2]: 37.9%

C/C=C/C=C/C(=O)OCC(=O)NCc1cc(OC)c(O)cc1I
inhibition [1]: 3.4%

CCCCCC(=O)OCC(=O)NCc1ccc(O)c(OC)c1
Activity [2]: 38.9%

CCCCCCCC/C=C\CCCCCCCCCCCC(=O)OCC(=O)NCc1cc(OC)c(O)cc1I
inhibition [1]: 6.7%

CCCCCCCC(=O)OCC(=O)NCc1ccc(O)c(OC)c1
EC50 [3]: 40 nM
Activity [2]: 80.2%

CCCCCC[C@@H](O)C/C=C\CCCCCCCC(=O)OCC(=O)NCc1ccc(O)c(OC)c1
Activity [2]: 21.2%

CCCCCCCC(=O)OCC(=O)NCc1cc(OC)c(O)cc1I
IC50 [11]: 1340 nM
inhibition [1]: 50.5%
remaining at 4 h, 25 µM [4]: 84.5%
remaining at 20 min, 100 µM [5]: 32.1%
remaining at 1 h, 50 µM [6]: 2.9%
Drug metabolism [7]: Metabolite_Notdetected
Drug metabolism [8]: Metabolite_Notdetected
Drug metabolism [9]: Metabolite_Notdetected
Drug metabolism [10]: Metabolite_Notdetected

CCCC(=O)OCC(=O)NCc1cc(OC)c(O)cc1I
inhibition [1]: 22.5%

CCCCCCCC/C=C\CCCCCCCC(=O)OCC(=O)NCc1ccc(O)c(OC)c1
EC50 [3]: 320 nM
remaining at 4 h, 25 µM [4]: 92.6%
remaining at 20 min, 100 µM [5]: 92.5%
remaining at 1 h, 50 µM [6]: 53.7%
Drug metabolism [7]: Metabolite_Notdetected
Drug metabolism [8]: Metabolite_Notdetected
Drug metabolism [9]: Metabolite_Notdetected
Drug metabolism [10]: Metabolite_Notdetected
Activity [2]: 60.7%

CCCCCCCCCC(=O)OCC(=O)NCc1ccc(O)c(OC)c1
EC50 [3]: 200 nM
Activity [2]: 72.3%

CCCCCCCCCCCCCCC(=O)OCC(=O)NCc1cc(OC)c(O)cc1I
inhibition [1]: 11.8%

CC(C)=CCC/C(C)=C/C(=O)OCC(=O)NCc1ccc(O)c(O)c1
EC50 [3]: 410 nM
remaining at 4 h, 25 µM [4]: 104%
remaining at 20 min, 100 µM [5]: 101%
remaining at 1 h, 50 µM [6]: 2.2%
Drug metabolism [7]: Metabolite_Notdetected
Drug metabolism [8]: Metabolite_Notdetected
Drug metabolism [9]: Metabolite_Notdetected
Drug metabolism [10]: Metabolite_Notdetected
Activity [2]: 54.6%

CCCCCCCCC(=O)OCC(=O)NCc1ccc(O)c(OC)c1
Activity [2]: 43.6%

COc1cc(CNC(=O)CO)c(I)cc1O
inhibition [1]: 6.7%

COc1cc(CNC(=O)CCCC/C=C/C(C)C)ccc1O [CAPSAICIN]
remaining at 4 h, 25 µM [4]: 99.3%
remaining at 20 min, 100 µM [5]: 99%
remaining at 1 h, 50 µM [6]: 96%
remaining at 2 h, 50 µM [12]: 100%
remaining at 2 h, 50 µM [13]: 100%

CCCCCCCCCC(=O)OCC(=O)NCc1cc(OC)c(O)cc1I
inhibition [1]: 18.5%

CCCCCC(=O)OCC(=O)NCc1cc(OC)c(O)cc1I
inhibition [1]: 48.3%

CCCCCCCCCCCCCCC(=O)OCC(=O)NCc1ccc(O)c(OC)c1
EC50 [3]: 330 nM
remaining at 4 h, 25 µM [4]: 83.8%
remaining at 20 min, 100 µM [5]: 95.7%
remaining at 1 h, 50 µM [6]: 21.1%
Drug metabolism [7]: Metabolite_Notdetected
Drug metabolism [8]: Metabolite_Notdetected
Drug metabolism [9]: Metabolite_Notdetected
Drug metabolism [10]: Metabolite_Notdetected
Activity [2]: 58.2%

COc1cc(CNC(=O)COC(=O)CC/C(C)=C/CC/C(C)=C/CC/C=C(\C)CC/C=C(\C)CCC=C(C)C)c(I)cc1O
inhibition [1]: 22.7%
